Experimental data reported in the supplement of paper PMC8671470.

tested on: KU-812; assay: cell viability (% survival relative to DMSO control, bortezomib = 0%); higher = less cytotoxic; conditions: 10 nM; 72 h
Summary of the method: (§1)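 Fifteen myeloid leukaemia cell lines were exposed to compounds at 1, 10, 100, 1000 or 10000 nM in 384-well plates for 72 h at 37 °C and 5% CO2. Viability was read by CellTiter-Glo luminescence and normalised, with vehicle as 100% and a 10 µM positive control as 0%. Values are percent survival averaged over duplicates.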

First: Cc1ccc(-c2cc(C(F)(F)F)nn2-c2ccc(S(N)(=O)=O)cc2)cc1 [Celecoxib]
Second: O=c1c(-c2ccc(O)cc2)coc2cc(O[C@@H]3O[C@H](CO)[C@@H](O)[C@H](O)[C@H]3O)ccc12 [Daidzin]
The cell viability of the first is lower: 91.9% for the first, 93.6% for the second.

Compared with CCN(CC)C(=S)SSC(=S)N(CC)CC [Disulfiram], C[C@H]1c2cccc(O)c2C(=O)C2C(=O)[C@]3(O)C(=O)C(C(N)=O)C(=O)[C@@H](N(C)C)[C@@H]3[C@@H](O)[C@@H]21 (stereo not given in full) [Doxycycline] is lower in cell viability: 99.3% for the first, 88.3% for the second.

c1cc(-c2cnn3cc(-c4ccc(OCCN5CCCCC5)cc4)cnc23)ccn1 [Dorsomorphin] gave a cell viability of 97.1%.

same assay, conditions: 100 nM; 72 h

Going from Cc1c(Cl)cccc1S(=O)(=O)Nc1nc(CC(=O)N2CCN(C)CC2)cs1 [BVT-2733] to CCOC(=O)c1sc(NC(=O)c2ccco2)c(SC#N)c1C [CBR-5884], the cell viability rises from 96.6% to 109%.

Going from CCc1oc2ccccc2c1C(=O)c1cc(Br)c(O)c(Br)c1 [Benzbromarone] to O=C(/C=C/c1ccc(O)c(O)c1)OCCc1ccccc1 [Caffeic acid phenethyl ester], the cell viability falls from 97.9% to 93.2%.

Compared with CCCCCOC(=O)Nc1nc(=O)n([C@@H]2O[C@H](C)[C@@H](O)[C@H]2O)cc1F [Capecitabine], O=c1c(-c2ccc(O)cc2)coc2cc(O[C@@H]3O[C@H](CO)[C@@H](O)[C@H](O)[C@H]3O)ccc12 [Daidzin] is lower in cell viability: 104% for the first, 100% for the second.

Compared with Cc1ccc(-c2cc(C(F)(F)F)nn2-c2ccc(S(N)(=O)=O)cc2)cc1 [Celecoxib], c1cc(-c2cnn3cc(-c4ccc(OCCN5CCCCC5)cc4)cnc23)ccn1 [Dorsomorphin] is higher in cell viability: 95.6% for the first, 97.2% for the second.

Going from CCN(CC)C(=S)SSC(=S)N(CC)CC [Disulfiram] to C[C@H]1c2cccc(O)c2C(=O)C2C(=O)[C@]3(O)C(=O)C(C(N)=O)C(=O)[C@@H](N(C)C)[C@@H]3[C@@H](O)[C@@H]21 (stereo not given in full) [Doxycycline], the cell viability rises from 97% to 105%.

same assay, conditions: 1000 nM; 72 h

Going from Cc1c(Cl)cccc1S(=O)(=O)Nc1nc(CC(=O)N2CCN(C)CC2)cs1 [BVT-2733] to CCOC(=O)c1sc(NC(=O)c2ccco2)c(SC#N)c1C [CBR-5884], the cell viability falls from 95.9% to 94.8%.

First: CCc1oc2ccccc2c1C(=O)c1cc(Br)c(O)c(Br)c1 [Benzbromarone]
Second: O=C(/C=C/c1ccc(O)c(O)c1)OCCc1ccccc1 [Caffeic acid phenethyl ester]
The cell viability of the first is higher: 87.4% for the first, 33.2% for the second.

Compared with CCCCCOC(=O)Nc1nc(=O)n([C@@H]2O[C@H](C)[C@@H](O)[C@H]2O)cc1F [Capecitabine], O=c1c(-c2ccc(O)cc2)coc2cc(O[C@@H]3O[C@H](CO)[C@@H](O)[C@H](O)[C@H]3O)ccc12 [Daidzin] is lower in cell viability: 102% for the first, 99.5% for the second.

Going from Cc1ccc(-c2cc(C(F)(F)F)nn2-c2ccc(S(N)(=O)=O)cc2)cc1 [Celecoxib] to c1cc(-c2cnn3cc(-c4ccc(OCCN5CCCCC5)cc4)cnc23)ccn1 [Dorsomorphin], the cell viability falls from 90.6% to 85.9%.

Compared with CCN(CC)C(=S)SSC(=S)N(CC)CC [Disulfiram], C[C@H]1c2cccc(O)c2C(=O)C2C(=O)[C@]3(O)C(=O)C(C(N)=O)C(=O)[C@@H](N(C)C)[C@@H]3[C@@H](O)[C@@H]21 (stereo not given in full) [Doxycycline] is higher in cell viability: 66% for the first, 102% for the second.

same assay, conditions: 10000 nM; 72 h

Going from Cc1c(Cl)cccc1S(=O)(=O)Nc1nc(CC(=O)N2CCN(C)CC2)cs1 [BVT-2733] to CCOC(=O)c1sc(NC(=O)c2ccco2)c(SC#N)c1C [CBR-5884], the cell viability rises from 86.4% to 88.3%.

Compared with CCc1oc2ccccc2c1C(=O)c1cc(Br)c(O)c(Br)c1 [Benzbromarone], O=C(/C=C/c1ccc(O)c(O)c1)OCCc1ccccc1 [Caffeic acid phenethyl ester] is lower in cell viability: 104% for the first, 7.74% for the second.

First: CCCCCOC(=O)Nc1nc(=O)n([C@@H]2O[C@H](C)[C@@H](O)[C@H]2O)cc1F [Capecitabine]
Second: O=c1c(-c2ccc(O)cc2)coc2cc(O[C@@H]3O[C@H](CO)[C@@H](O)[C@H](O)[C@H]3O)ccc12 [Daidzin]
The cell viability of the first is higher: 89.9% for the first, 87.5% for the second.

First: Cc1ccc(-c2cc(C(F)(F)F)nn2-c2ccc(S(N)(=O)=O)cc2)cc1 [Celecoxib]
Second: c1cc(-c2cnn3cc(-c4ccc(OCCN5CCCCC5)cc4)cnc23)ccn1 [Dorsomorphin]
The cell viability of the first is higher: 62.8% for the first, 1.77% for the second.

Going from CCN(CC)C(=S)SSC(=S)N(CC)CC [Disulfiram] to C[C@H]1c2cccc(O)c2C(=O)C2C(=O)[C@]3(O)C(=O)C(C(N)=O)C(=O)[C@@H](N(C)C)[C@@H]3[C@@H](O)[C@@H]21 (stereo not given in full) [Doxycycline], the cell viability rises from 66.9% to 74.4%.

tested on: K-562; assay: as above; conditions: 1 nM; 72 h
Summary of the method: as §1

Compared with Cc1c(Cl)cccc1S(=O)(=O)Nc1nc(CC(=O)N2CCN(C)CC2)cs1 [BVT-2733], CCOC(=O)c1sc(NC(=O)c2ccco2)c(SC#N)c1C [CBR-5884] is lower in cell viability: 98% for the first, 89.9% for the second.

Going from CCc1oc2ccccc2c1C(=O)c1cc(Br)c(O)c(Br)c1 [Benzbromarone] to O=C(/C=C/c1ccc(O)c(O)c1)OCCc1ccccc1 [Caffeic acid phenethyl ester], the cell viability falls from 117% to 90.1%.

Compared with CCCCCOC(=O)Nc1nc(=O)n([C@@H]2O[C@H](C)[C@@H](O)[C@H]2O)cc1F [Capecitabine], O=c1c(-c2ccc(O)cc2)coc2cc(O[C@@H]3O[C@H](CO)[C@@H](O)[C@H](O)[C@H]3O)ccc12 [Daidzin] is lower in cell viability: 97.4% for the first, 92.1% for the second.

Going from Cc1ccc(-c2cc(C(F)(F)F)nn2-c2ccc(S(N)(=O)=O)cc2)cc1 [Celecoxib] to c1cc(-c2cnn3cc(-c4ccc(OCCN5CCCCC5)cc4)cnc23)ccn1 [Dorsomorphin], the cell viability falls from 96.3% to 94.2%.

First: CCN(CC)C(=S)SSC(=S)N(CC)CC [Disulfiram]
Second: C[C@H]1c2cccc(O)c2C(=O)C2C(=O)[C@]3(O)C(=O)C(C(N)=O)C(=O)[C@@H](N(C)C)[C@@H]3[C@@H](O)[C@@H]21 (stereo not given in full) [Doxycycline]
The cell viability of the first is lower: 90.2% for the first, 112% for the second.

same assay, conditions: 10 nM; 72 h

Going from Cc1c(Cl)cccc1S(=O)(=O)Nc1nc(CC(=O)N2CCN(C)CC2)cs1 [BVT-2733] to CCOC(=O)c1sc(NC(=O)c2ccco2)c(SC#N)c1C [CBR-5884], the cell viability rises from 83.5% to 105%.

Compared with CCc1oc2ccccc2c1C(=O)c1cc(Br)c(O)c(Br)c1 [Benzbromarone], O=C(/C=C/c1ccc(O)c(O)c1)OCCc1ccccc1 [Caffeic acid phenethyl ester] is higher in cell viability: 94.6% for the first, 94.8% for the second.

Going from CCCCCOC(=O)Nc1nc(=O)n([C@@H]2O[C@H](C)[C@@H](O)[C@H]2O)cc1F [Capecitabine] to O=c1c(-c2ccc(O)cc2)coc2cc(O[C@@H]3O[C@H](CO)[C@@H](O)[C@H](O)[C@H]3O)ccc12 [Daidzin], the cell viability rises from 92.5% to 98.9%.

First: Cc1ccc(-c2cc(C(F)(F)F)nn2-c2ccc(S(N)(=O)=O)cc2)cc1 [Celecoxib]
Second: c1cc(-c2cnn3cc(-c4ccc(OCCN5CCCCC5)cc4)cnc23)ccn1 [Dorsomorphin]
The cell viability of the first is lower: 86.6% for the first, 97.4% for the second.

Compared with CCN(CC)C(=S)SSC(=S)N(CC)CC [Disulfiram], C[C@H]1c2cccc(O)c2C(=O)C2C(=O)[C@]3(O)C(=O)C(C(N)=O)C(=O)[C@@H](N(C)C)[C@@H]3[C@@H](O)[C@@H]21 (stereo not given in full) [Doxycycline] is lower in cell viability: 99.1% for the first, 97% for the second.

same assay, conditions: 100 nM; 72 h

Going from Cc1c(Cl)cccc1S(=O)(=O)Nc1nc(CC(=O)N2CCN(C)CC2)cs1 [BVT-2733] to CCOC(=O)c1sc(NC(=O)c2ccco2)c(SC#N)c1C [CBR-5884], the cell viability rises from 87.1% to 92.7%.

Going from CCc1oc2ccccc2c1C(=O)c1cc(Br)c(O)c(Br)c1 [Benzbromarone] to O=C(/C=C/c1ccc(O)c(O)c1)OCCc1ccccc1 [Caffeic acid phenethyl ester], the cell viability falls from 103% to 97.8%.

In the case of CCCCCOC(=O)Nc1nc(=O)n([C@@H]2O[C@H](C)[C@@H](O)[C@H]2O)cc1F [Capecitabine], the cell viability is reported as 82.9%.
